Data published in patent publication US10407445B2, “Hepatitis C virus inhibitors” (ENANTA PHARMACEUTICALS, INC., priority 2013, dated 2019).

Key:
Format in all cases: cell-based
[1] = tested on: HCV genotype 1a replicon, NS5A M28T Q30H; experiment: Transient replication assay, GT1a NS5A M28T Q30H; settings: Hepatitis C virus
[2] = tested on: HCV genotype 1a replicon, NS5A Q30R Y93H; experiment: Transient replication assay, GT1a NS5A Q30R Y93H; settings: Hepatitis C virus
GT1a-H77 replicon = experiment: Stable replicon assay, comparison to daclatasvir, GT1a-H77; settings: Hepatitis C virus; Replicon GT1a-H77, NS5A genotype 1a
Procedure: Stable HCV replicon cell lines were grown in complete media (Dulbecco's modified Eagle medium [DMEM], 2 mM L-glutamine, 0.1 mM essential amino acids, 1 mM sodium pyruvate, 10% fetal bovine serum) with the addition 500 μg/ml […] (G418). Huh7-lunet cells were maintained in the same medium without the addition of G418. Cells were routinely passaged at a dilution of 1:5 two times per week. For stable replicon assays (GT1a-H77, GT1b-Con1, GT2a-JFH, GT2a-J6, GT2a-2b-MD2b, GT2a-2b-J8, GT2a-3a-S52, GT3a-552, GT4a-ED43, GT2a-5a-SA13, GT2a-6a-EUKH2, GT2a-6a-HK6a, and GT2a-7a-QC69), an 8-point 3-fold or half-log dilution series of compound was transferred into three replica 96-well plates containing 1×10^4 cells per well in phenol red-free complete media without G418. For the transient replication assay, Huh7-lunet cells in ice-cold phosphate buffered saline (PBS) were electroporated (Bio-Rad Gene pulser: 950 uF, 270V) with 10 μg purified in vitro transcribed HCV replicon RNA, followed by resuspension in phenol red-free complete media without G418 and plating (1×10^4 cells in 200 μL media/well) into three replica 96-well plates prior to compound addition (1 μl compound per well). For stable and transient replicon assays, luciferase activity of compound-treated cells was measured relative to DMSO-treated cells after 72 h incubation using RENILLA-GLO™ Luciferase Assay (Promega). […]

GT2a-2b-J8 replicon = experiment: Stable replicon assay, comparison to daclatasvir, GT2a-2b-J8; settings: Hepatitis C virus
Source text: (§1) The plasmid pSG-hRlucNeo-JFH1 was generated from pSG-Neo-JFH1 (Kato et al. 2003, Gastroentrology 125:1808-1817). A fragment containing the JFH-1 5′ NTR-hRluc-Neo gene and two unique restriction sites (AgeI and PmeI) was synthesized (Integrated DNA Technologies, Coralville, Iowa). The resulting plasmid was digested with AgeI and PmeI and the excised fragment (5′NTR-hRluc-Neo) was ligated into pSG-Neo-JFH1 digested with the same enzymes to generate pSG-hRlucNeo-JFH1. To allow expression of heterologous NS5A sequences, an NS5A shuttle vector was generated from pSG-Neo-JFH1, in which the entire coding sequence of NS5A plus the first eight codons of NS5B were replaced with an AfeI restriction site. This was done by Infusion cloning (Clontech, Mountain View, Calif.) from two PCR products that were generated using pSG-Neo-JFH1 as a template and the following primer pairs: […]
(§2) Stable HCV replicon cell lines were grown in complete media (Dulbecco's modified Eagle medium [DMEM], 2 mM L-glutamine, 0.1 mM essential amino acids, 1 mM sodium pyruvate, 10% fetal bovine serum) with the addition 500 μg/ml […] (G418). […] For stable and transient replicon assays, luciferase activity of compound-treated cells was measured relative to DMSO-treated cells after 72 h incubation using RENILLA-GLO™ Luciferase Assay (Promega). […]

[3] = tested on: HCV genotype 1a replicon, NS5A K24E Q30R; experiment: Transient replication assay, GT1a NS5A K24E Q30R; settings: Hepatitis C virus
[4] = tested on: HCV genotype 1a replicon, NS5A L31M; experiment: Transient replication assay, GT1a NS5A L31M; settings: Hepatitis C virus
[5] = tested on: HCV genotype 1a replicon, NS5A Q30R Y93C; experiment: Transient replication assay, GT1a NS5A Q30R Y93C; settings: Hepatitis C virus
GT2a-2a-J6 replicon = experiment: Stable replicon assay, comparison to daclatasvir, GT2a-2a-J6; settings: Hepatitis C virus
Source text: as §1, §2

[6] = tested on: wild type (wt) HCV genotype 1a replicon; experiment: Transient replication assay, HCV genotype 1a wild type (wt); settings: Hepatitis C virus; HCV genotype 1a replicon wt
GT2a-7a-QC69 replicon = experiment: Stable replicon assay, comparison to daclatasvir, GT2a-7a-QC69; settings: Hepatitis C virus
Source text: as §1, §2

Row | SMILES | EC50 [1] [nM] | EC50 [2] [nM] | EC50 (GT1a-H77 replicon) [nM] | EC50 (GT2a-2b-J8 replicon) [nM] | EC50 [3] [nM] | EC50 [4] [nM] | EC50 [5] [nM] | EC50 (GT2a-2a-J6 replicon) [nM] | EC50 [6] [nM] | EC50 (GT2a-7a-QC69 replicon) [nM]
1 | COC(=O)N[C@H](C(=O)N1C[C@]2(CCCOC2)C[C@H]1c1ncc(-c2ccc(-c3ccc4c(ccc5nc([C@@H]6C[C@@H]7CCC[C@@H]7N6C(=O)[C@@H](NC(=O)OC)C(C)C)[nH]c54)c3)cc2)[nH]1)C(C)C [Compound 16] | 24 | 38 | 0.007 | 9.9 | 1.8 | 0.0106 | 1.4 | 0.49 | 0.0014 | 0.02
2 | COC(=O)N[C@H](C(=O)N1CCC[C@H]1c1nc(-c2ccc(-c3ccc(-c4c[nH]c([C@@H]5CCCN5C(=O)[C@@H](NC(=O)OC)C(C)C)n4)cc3)cc2)c[nH]1)C(C)C [Daclatasvir, reference compound] | 733 | 243 | 0.06 | 20 | 3.5 | 0.67 | 26 | 5.8 | 0.0083 | 0.016
